# No end group written: not given here.
# Columns and labels:
# [1] = tested on: patients with type II diabetes; assay: Treatment of patients with decompensated type II diabetes; format: in vivo, human; details: five patients, 1 mg every 12 hours intravenously for eight days
# Method: It is exemplified with ten patients who had diabetic decompensation and reached a state of severity, that let them to be treated in the ICU of the hospital “Luis Díaz Soto” in Havana. Five of these patients were treated with a pharmaceutical composition comprising the peptide identified as SEQ ID NO: 1, so that a peptide dose of 1 mg every 12 hours was administered intravenously for eight days. In addition, they received the standard therapy needed for these cases.
# patients with RA = details: cited from earlier work
# [2] = tested on: patients with ischemic heart disease; assay: Treatment of patients with ischemic heart disease and high blood pressure; format: in vivo, human; details: six patients, 1 mg every 12 hours intravenously for seven days
# Method: It is exemplified with the results of six patients. They presented ischemic heart disease, associated with high blood pressure, which produced a state of severity. They were treated in the Intermediate Care Unit (IMCU) of the “Luis Diaz Soto” hospital in Havana. These patients were treated with a pharmaceutical composition comprising the peptide identified as SEQ ID NO: 1, so that a peptide dose of 1 mg every 12 hours was administered intravenously for seven days. In addition, they received the standard therapy needed for these cases.
sequence,measurement,setting,value
SIDLKDKYKNIGAKLVQLVANNTNEEA [SEQ ID NO: 1],"side effects (clinical and imaging evaluation, blood biochemistry, differential blood count)",[1],No side effects were observed
same,safety,patients with RA,proved to be safe
same,"side effects (clinical and imaging evaluation, blood biochemistry, differential blood count)",[2],No side effects were observed

# Reference: patent publication US20260226114A1, “PEPTIDE FOR THE TREATMENT OF DISEASES ASSOCIATED WITH APOLIPOPROTEIN AI OR TRANSTHYRETIN INVOLVEMENT” (CENTRO DE INGENIERÍA GENÉTICA Y BIOTECNOLOGÍA, priority 2022, published 2026)
